Reference: patent US8466186B2, “Compounds” (Boehringer Ingelheim International GmbH, priority 2010, dated 2013)
pIC50: −log10 of the molar value.

target: T1, recombinant human mPGES-1 (Homo sapiens, UniProt O14684); experiment: Assay A: mPGES-1 enzyme assay (HTRF detection of PGE2); format: biochemical; conditions: biological assay A; microsomes from E. coli expressing recombinant human mPGES-1; read-out: mPGES-1 inhibitory effect IC50
T1 construct: made in house; host or cells: Rosetta E. coli (membrane/microsome fraction)
T1 sequence (O14684 1-152): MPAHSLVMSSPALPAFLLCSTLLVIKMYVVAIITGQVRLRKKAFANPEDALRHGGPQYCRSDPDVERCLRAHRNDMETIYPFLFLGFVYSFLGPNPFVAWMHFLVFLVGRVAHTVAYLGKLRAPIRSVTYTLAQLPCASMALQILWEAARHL
Outline: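 Human mPGES-1 in E. coli (Rosetta) microsomes, in 0.1 M KP pH 7.4 with 2.5 mM GSH, preincubated with inhibitor 25 min at room temperature. PGH2 substrate added for 1 min, then stopped with acidified FeCl2. PGE2 formed measured by HTRF after 750-fold dilution.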

SMILES | pIC50
Cn1c(Nc2cc(CNC(=O)C3(C(F)(F)F)CC3)ccc2Cl)nc2cc(F)c(N3CCC(C)(C)CC3)cc21 [Example 87] | 7.85
CN(C)CC1CCCN1c1cc2[nH]c(Nc3cc(CNC(=O)C(C)(C)C)ccc3Cl)nc2cc1Cl (centres unmarked) [Example 7, N-{4-Chloro-3-[5-chloro-6-(2-dimethylaminomethyl-pyrrolidin-1-yl)-1H-benzimidazol-2-ylamino]-benzyl}-2,2-dimethyl-propionamide] | 7.13
O=C(NCc1ccc(Cl)c(Nc2nc3cc(Cl)c(N4CCCC(C(F)(F)F)C4)cc3[nH]2)c1)C1(C(F)(F)F)CC1 (centres unmarked) [Example 72] | 7.96
CC1(C(=O)NCc2ccc(Cl)c(Nc3nc4ccc(N5CCOCC5)cc4[nH]3)c2)CCCCC1 [Example 119] | < 7.00
Cn1c(Nc2cc(CNC(=O)C3(C(F)(F)F)CC3)ccc2Cl)nc2cc(Cl)c(N3CCOCC3)cc21 [Example 10] | 7.51

These reach a higher pIC50. Values come first.

pIC50 | SMILES
8.00 | Cn1c(Nc2cc(CNC(=O)C3(C)COC3)ccc2Cl)nc2cc(Cl)c(N3CCCC(C(F)(F)F)C3)cc21 (centres unmarked) [Example 66]
8.10 | COC[C@@H]1CCCN1c1cc2[nH]c(Nc3cc(CNC(=O)C4(C)CCCCC4)ccc3Cl)nc2cc1Cl [Example 122]
8.17 | COC[C@@H]1CCCN1c1cc2c(cc1Cl)nc(Nc1cc(CNC(=O)C3(C(F)(F)F)CC3)ccc1Cl)n2C [Example 126]
